Laboratory results as given in PubChem BioAssay (NCI).
“And” between values parts separate entries of the source, which are not always exact repeats. Identical values can stand only once.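 Following 48 hours of exposure in 96-well plates, responses at five concentrations were used to interpolate endpoints linearly. GI50 = concentration required for 50% inhibition of growth. The concentration for full growth arrest is given as TGI.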

Legend:
Assay in all cases: NCI-60 cell line screen, 48 h
MDA-MB-435 = system: MDA-MB-435
TK-10 renal = system: TK-10 renal
MALME-3M melanoma = system: MALME-3M melanoma
SNB-75 CNS = system: SNB-75 CNS
T-47D breast = system: T-47D breast
SK-OV-3 ovarian = system: SK-OV-3 ovarian
ACHN renal = system: ACHN renal
NCI-H23 lung = system: NCI-H23 lung
LOX IMVI melanoma = system: LOX IMVI melanoma
KM12 colon = system: KM12 colon
SK-MEL-2 melanoma = system: SK-MEL-2 melanoma
SF-295 CNS = system: SF-295 CNS
DU-145 prostate = system: DU-145 prostate
IGROV1 ovarian = system: IGROV1 ovarian
EKVX NSCLC = system: EKVX NSCLC
SNB-19 CNS = system: SNB-19 CNS
OVCAR-3 ovarian = system: OVCAR-3 ovarian
SR leukemia = system: SR leukemia
HL-60(TB) leukemia = system: HL-60(TB) leukemia

SMILES | TGI (MDA-MB-435) | TGI (TK-10 renal) [µM] | TGI (MALME-3M melanoma) [µM] | TGI (SNB-75 CNS) [µM] | TGI (T-47D breast) [µM] | TGI (SK-OV-3 ovarian) [µM] | TGI (ACHN renal) [µM] | TGI (NCI-H23 lung) [µM] | TGI (LOX IMVI melanoma) | TGI (KM12 colon) [µM] | TGI (SK-MEL-2 melanoma) [µM] | TGI (SF-295 CNS) [µM] | TGI (DU-145 prostate) [µM] | TGI (IGROV1 ovarian) [µM] | TGI (EKVX NSCLC) [µM] | TGI (SNB-19 CNS) [µM] | TGI (OVCAR-3 ovarian) [µM] | TGI (SR leukemia) [µM] | TGI (HL-60(TB) leukemia) [µM] | GI50 (LOX IMVI melanoma) [µM]
COCN1C(=O)[C@@H]2CCCN2C(=O)c2cc(OC)c(Cc3ccccc3)cc21 | > 100 µM | > 100 | > 100 | > 100 | > 100 | > 100 | > 100 | > 100 | > 100 µM | > 100 | > 100 | > 100 | > 100 | > 100 | > 100 | > 100 | – | – | – | –
O=C(CC(NC(=O)OCc1ccccc1)C(=O)NC1Cc2ccccc2C1=O)OCc1ccccc1 (stereo not given) | > 100 µM | > 100 | > 100 | > 100 | – | > 100 | > 100 | > 100 | – | > 100 | > 100 | > 100 | > 100 | > 100 | > 100 | > 100 | > 100 | > 100 | – | –
C/C(=N/NC(=O)c1ccccc1S(N)(=O)=O)C(CN1CCCCC1)C(C1=C(O)C2C=CC=CC2OC1=O)c1ccccc1 (stereo not given) | – | > 100 | > 100 | > 100 | – | > 100 | > 100 | > 100 | > 100 µM | > 100 | > 100 | > 100 | – | > 100 | > 100 | > 100 | > 100 | 61.8 | 53.3 | –
CC(=O)OCC1OC(N2C(=O)[C@@H](Oc3ccccc3)[C@H]2/C=C/c2ccccc2)C(OC(C)=O)C(OC(C)=O)C1OC(C)=O (stereo not given in full) | – | > 100 | > 100 | 90 | – | > 100 | > 100 | > 100 | > 100 µM | – | > 100 | > 100 | – | > 100 | > 100 | > 100 | > 100 | > 100 | > 100 | –
OCC(O)COCn1cc(Cn2ncc3c(SCc4ccccc4)ncnc32)nn1 (stereo not given) | > 100 µM | > 100 | – | – | > 100 | > 100 | > 100 | > 100 | > 100 µM | > 100 | > 100 | > 100 | > 100 | > 100 | > 100 | > 100 | > 100 | – | > 100 | –
CC(C)OC(=O)NCCn1cc(-c2ccccc2)nn1 | > 100 µM | > 100 | > 100 | > 100 | – | – | > 100 | > 100 | > 100 µM | > 100 | > 100 | > 100 | > 100 | – | > 100 | > 100 | – | > 100 | > 100 | –
COc1ccc2c(-c3csc(-c4c[nH]c5ccc(Br)cc45)n3)c[nH]c2c1 | 67.9 µM | > 100 | 43.9 | – | > 100 | – | > 100 | > 100 | > 100 µM | > 100 | > 100 | > 100 | > 100 | > 100 | > 100 | > 100 | > 100 | – | – | –
O=C1CSC(c2c[nH]c3ccccc23)N1c1cccc(Cl)c1 (stereo not given) | > 100 µM | > 100 | – | > 100 | > 100 | > 100 | > 100 | > 100 | – | > 100 | 65.2 | > 100 | > 100 | > 100 | > 100 | > 100 | > 100 | – | > 100 | –
CC1(OCc2ccccc2)C(=O)N2C1NCC2(C)C (stereo not given) | – | > 100 | > 100 | > 100 | – | – | > 100 | > 100 | > 100 µM | – | > 100 | > 100 | – | > 100 | > 100 | > 100 | > 100 | > 100 | > 100 | –
N#CC(C#N)=c1c(=O)c2c3ccccc3cc3cccc1c32 | > 100 µM | – | – | > 100 | > 100 | > 100 | > 100 | > 100 | > 100 µM | > 100 | > 100 | – | > 100 | > 100 | – | > 100 | > 100 | – | > 100 | –
CC(=O)OCC1OC(n2c3c(c(-c4ccc(C)cc4)c(C#N)c2=S)C(=O)CC(C)(C)C3)C(OC(C)=O)C(OC(C)=O)C1OC(C)=O (stereo not given) | > 100 µM | > 100 | > 100 | 82.5 | – | – | > 100 | > 100 | 26.2 µM | > 100 | – | 89 | > 100 | > 100 | – | > 100 | > 100 | > 100 | > 100 | –
CC(=O)N1C=Cc2c(c(C)c3c([nH]c4ccccc43)c2C)C1 | 27.4 µM | 24.5 | 23.1 | – | – | 27 | 11.3 | 20.4 | 16.8 µM | 12 | 27.2 | 23.8 | 26.6 | 17.9 | 8.13 | 28.7 | 4.55 | > 100 | > 100 | –
Cc1nnc2n1N=C(c1cc(F)c(Cl)cc1Cl)/C(=C/c1ccc(-c3ccc([N+](=O)[O-])cc3)o1)S2 | > 100 µM | – | > 100 | – | > 100 | > 100 | > 100 | > 100 | > 100 µM | > 100 | > 100 | > 100 | – | > 100 | > 100 | > 100 | > 100 | > 100 | > 100 | –
CSC(=S)CC(O)[C@@H]1CC2c3ccccc3C1c1ccccc12 (stereo not given in full) | 26 µM | 30.7 | 39.1 | – | 37.7 | 28.7 | 29.5 | 22.2 | 54.6 µM | 25.5 | – | 34.4 | 30.8 | 33.1 | – | 26.7 | 22.2 | – | 7.96 | –
COc1ccc(N2C(=O)c3cc([N+](=O)[O-])cnc3S2(=O)=O)cc1 | > 100 µM | > 100 | > 100 | > 100 | – | > 100 | > 100 | > 100 | > 100 µM | > 100 | > 100 | > 100 | > 100 | > 100 | > 100 | > 100 | > 100 | > 100 | > 100 | –
CCN(CC)C(=O)CCn1ccc(=O)[nH]c1=O | – | > 100 | > 100 | > 100 | – | – | > 100 | > 100 | > 100 µM | > 100 | > 100 | > 100 | – | > 100 | > 100 | > 100 | > 100 | > 100 | > 100 | –
C=C(Br)C(C)(Cl)CCC(Br)C(C)(C)Br (stereo not given) | – | > 100 | > 100 | > 100 | – | > 100 | > 100 | > 100 | 50.5 µM | > 100 | 80.4 | > 100 | – | > 100 | – | – | – | 51.9 | 54.5 | –
COC(=O)c1c(O)c(C#N)c2[nH]c3ccccc3n2c1=O | > 100 µM | > 100 | > 100 | > 100 | – | > 100 | > 100 | > 100 | – | > 100 | > 100 | > 100 | > 100 | > 100 | > 100 | > 100 | > 100 | > 100 | > 100 | –
O=C(c1ccc2ccccc2c1)C1(I)S(=O)(=O)OCCOS1(=O)=O | > 100 µM | > 100 | > 100 | – | – | – | > 100 | > 100 | – | > 100 | > 100 | 0.0298 | > 100 | – | > 100 | > 100 | > 100 | > 100 | > 100 | –
C/C=C1/CC(C(=O)OC)N(C(=O)OCc2ccccc2)C1=S (stereo not given) | > 100 µM | > 100 | > 100 | > 100 | – | > 100 | > 100 | > 100 | – | > 100 | > 100 | > 100 | > 100 | > 100 | > 100 | > 100 | > 100 | – | – | –
COc1cc([C@@H]2c3cc4c(cc3[C@H](OC3OC5COC(c6ccco6)OC5C(O)C3O)C3COC(=O)[C@@H]32)OCO4)cc(OC)c1OC (stereo not given in full) | > 100 µM | > 100 | > 100 | > 100 | > 100 | > 100 | > 59.3 | > 79.4 | > 100 µM | > 100 | > 69.8 | > 100 | > 100 | > 52.7 | – | > 100 | > 24.6 | – | > 100 | –
COC(=O)c1cc2ccc(O)c(O)c2cn1 | 3.25 µM and 3.21 µM | 34.6 | 27.5 | 36.6 | – | 92.3 | 43.6 | 32 | 5.43 µM and 3.31 µM | 32 | 34.3 | 33.6 | > 100 | 33.2 | 38.4 | – | 30.8 | – | > 100 | 1.57
COC(=O)C(=O)C(C(=O)C(=O)Nc1ccc(Cl)c(Cl)c1)c1nc2ccc(C(=O)c3ccccc3)cc2[nH]c1=O (stereo not given) | > 100 µM | > 100 | > 100 | > 100 | > 100 | > 100 | > 100 | > 100 | > 100 µM | > 100 | > 100 | > 100 | – | > 100 | > 100 | > 100 | > 100 | – | > 100 | –
COc1ccc2c(O)c(Oc3ccc(Cl)cc3)c(=O)oc2c1 | – | > 100 | > 100 | > 100 | > 100 | – | > 100 | > 100 | > 100 µM | > 100 | – | > 100 | > 100 | > 100 | > 100 | > 100 | > 100 | > 100 | > 100 | –
N/N=c1/nc2n(c3ncccc13)C=CNN2 | – | > 100 | > 100 | – | – | > 100 | > 100 | > 100 | > 100 µM | > 100 | > 100 | > 100 | – | > 100 | > 100 | > 100 | > 100 | > 100 | > 100 | –
O=C(O)CN1CCSc2ccccc2CN(CC(=O)O)CCSc2ccccc2C1 | – | > 100 | > 100 | > 100 | – | > 100 | > 100 | > 100 | > 100 µM | > 100 | > 100 | > 100 | – | > 100 | > 100 | > 100 | > 100 | 84.5 | > 100 | –
CN(C)c1cccc(-c2cc(=S)c3cc4c(cc3[nH]2)OCO4)c1 | – | > 100 | > 100 | – | > 100 | > 100 | > 100 | > 100 | > 100 µM | > 100 | > 100 | > 100 | > 100 | > 100 | > 100 | > 100 | > 100 | > 100 | – | –
O=C(CNc1ccccc1[N+](=O)[O-])Nn1cnc2ccc(S(=O)(=O)Nc3ccccc3[N+](=O)[O-])cc2c1=O | > 100 µM | > 100 | > 100 | > 100 | – | > 100 | > 100 | > 100 | > 100 µM | > 100 | > 100 | > 100 | > 100 | > 100 | > 100 | > 100 | > 100 | > 100 | > 100 | –
